According to patent US7741340B2, “Hydroxy piperidine derivatives to treat gaucher disease” (Amicus Therapeutics, Inc., priority 2003, dated 2010):

Columns and labels:
human GCase = human GCase (Homo sapiens, UniProt P04062); assay: Inhibitory activity against GCase (4-methylumbelliferyl β-glucoside substrate); assay type: biochemical; settings: for IC50: 4-methylumbelliferyl β-glucoside at 3 mM, pH 5.2, 37° C., 30 min
[1] = system: Fibroblasts established from Gaucher patients with N370S/N370S mutation; assay: Chaperone rescue of residual GCase activity in Gaucher fibroblasts; assay type: cell-based, human; settings: N370S homozygous fibroblasts, cultured 4 days with compound, at optimal concentration
[2] = shortly after the start of the treatment; cited from earlier work

Chain of human GCase (P04062 40-536): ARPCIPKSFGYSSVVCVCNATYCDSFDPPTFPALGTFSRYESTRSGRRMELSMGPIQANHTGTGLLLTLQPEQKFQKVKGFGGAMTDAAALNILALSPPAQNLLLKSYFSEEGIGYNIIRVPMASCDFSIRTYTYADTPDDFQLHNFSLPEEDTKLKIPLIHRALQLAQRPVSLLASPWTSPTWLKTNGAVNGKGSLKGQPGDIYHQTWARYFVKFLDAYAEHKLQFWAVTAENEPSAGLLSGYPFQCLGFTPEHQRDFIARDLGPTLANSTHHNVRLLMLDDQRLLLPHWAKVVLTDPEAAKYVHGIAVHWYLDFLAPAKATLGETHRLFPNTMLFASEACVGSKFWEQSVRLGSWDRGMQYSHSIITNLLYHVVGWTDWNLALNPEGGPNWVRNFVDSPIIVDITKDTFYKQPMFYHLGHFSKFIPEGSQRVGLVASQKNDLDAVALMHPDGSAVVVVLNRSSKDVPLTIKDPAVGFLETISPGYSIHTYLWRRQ

Question: Which IC50 (human GCase) does the source give for `CCCC[C@@H]1NC[C@@H](O)[C@H](O)[C@H]1CO` [Compound 11, (3R, 4R, 5R, 6S)-5-(Hydroxymethyl)-6-n-butyl-3,4-dihydroxypiperidine] here?
Answer: 160 nM

Question: And the “effect of 6-C substitution on potency towards GCase” value (human GCase; compared with the parent hydroxypiperidine)?
Answer: did not affect the potency

Question: For `CCCCCC[C@@H]1NC[C@@H](O)[C@H](O)[C@H]1CO` [Compound 12, (3R, 4R, 5R, 6S)-5-(Hydroxymethyl)-6-n-hexyl-3,4-dihydroxypiperidine], which IC50 (human GCase) is on record?
Answer: 4.2 nM

Question: And the “increase in potency over IFG” value (human GCase; relative to IFG)?
Answer: approximately 13 fold

Question: Which IC50 (human GCase) does the source give for “N-butyl hydroxypiperidine [reference compound]” here?
Answer: 44000 nM

Question: For `CCCCCCCC[C@@H]1NC[C@@H](O)[C@H](O)[C@H]1CO` [Compound 14, (3R, 4R, 5R, 6S)-5-(Hydroxymethyl)-6-n-octyl-3,4-dihydroxypiperidine], which IC50 (human GCase) is on record?
Answer: 0.8 nM

Question: With `OC[C@H]1CNC[C@@H](O)[C@@H]1O` [hydroxypiperidine, isofagomine] as the compound, how does the “increase of residual enzyme activity in patient cells” value [1] read?
Answer: approximately 2 fold

Question: For “N-nonyl hydroxypiperidine [reference compound]”, which IC50 (human GCase) is on record?
Answer: > 100000 nM

Question: With `CCCCN1CC(O)C(O)C(O)C1CO` (stereo not shown) [N-butyl 1-deoxynojirimycin] as the compound, how does the “patients with diarrhea (most frequent adverse effect)” value [2] read?
Answer: 79%

Question: With `CCCCCCC[C@@H]1NC[C@@H](O)[C@H](O)[C@H]1CO` [Compound 13, (3R, 4R, 5R, 6S)-5-(Hydroxymethyl)-6-n-heptyl-3,4-dihydroxypiperidine] as the compound, how does the IC50 (human GCase) read?
Answer: 1.8 nM
